Test results: EP4434982A1, “(S)-2-(2-METHYLAZETIDIN-1-YL)PYRIMIDINE DERIVATIVE AND PHARMACEUTICAL COMPOSITION COMPRISING SAME” (LG Chem, Ltd., priority 2021, dated 2023)

Each compound was assayed against T1, Ketohexokinase (KHK) (Homo sapiens, UniProt P50053) (assay: measurement of activity in vitro of ketohexokinase inhibitor (Transcreener ADP2 TR-FRET Red Assay, ADP produced)). Conditions: KHK pre-reacted with inhibitor 30 minutes, then substrate (ATP, fructose) 15 minutes; Ki by Morrison equation.
T1 construct: His tag; made in house; host or cells: E. coli
T1 sequence (P50053 1-298): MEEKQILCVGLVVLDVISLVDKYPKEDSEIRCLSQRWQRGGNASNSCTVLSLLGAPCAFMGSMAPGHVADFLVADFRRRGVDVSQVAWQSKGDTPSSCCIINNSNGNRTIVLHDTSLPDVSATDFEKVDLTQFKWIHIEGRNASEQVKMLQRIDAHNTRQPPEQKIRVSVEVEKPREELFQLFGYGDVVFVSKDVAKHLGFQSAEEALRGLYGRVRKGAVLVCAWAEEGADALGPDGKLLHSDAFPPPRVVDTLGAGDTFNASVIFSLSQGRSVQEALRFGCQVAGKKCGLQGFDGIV
Type: biochemical
Procedure: Ketohexokinase (KHK) was expressed in E. Coli and purified using His tag. In order to measure the activity of the purified KHK, Transcreener ADP2 TR-FRET Red Assay kit of BellBrook Labs was used. A method of measuring the amount of ADP produced was used using TR-FRET after reacting a solution including a suitable concentration of KHK protein and ATP, and fructose for 15 minutes. In order to see the activity of a ketohexokinase (KHK) inhibitor, ketohexokinase (KHK) and a suitable concentration of an inhibitor were reacted first for 30 minutes, and then, reacted with a solution including the substrate of ketohexokinase (KHK) for 15 minutes. Then, reaction for TR-FRET was performed for 1 hour, and fluorescence was measured using Envision equipment of PerkinElmer. According to the optimization procedure of TR-FRET published by BellBrook Lab, the set value of the Envision equipment was determined.
The result values by concentration of the ketohexokinase (KHK) inhibitor were determined as the ratio of a wavelength of 665 nm and a wavelength of 615nm. The 665/615 ratio value by concentration of each inhibitor was converted to ADP concentration based on ADP standard curve, and inhibition activity Ki value was obtained using Morrison equation by statistical software (Prizm). Meanwhile, the Ki value is a value representing the binding affinity of the inhibitor and an enzyme, and a lower value means better inhibitory activity.

How did the Ki turn out when `C[C@H]1CCN1c1nc(N2C[C@H]3C[C@@H](C2)[C@@H]3CC(=O)N2CCNCC2)c2c(n1)C(F)(F)OCC2` [Example 24, 2-((1R,5S,6S)-3-(8,8-difluoro-2-((S)-2-methylazetidin-1-yl)-5,8-dihydro-6H-pyrazol[3,4-d]pyrimidin-4-yl)-3-azabicyclo[3.1.1]heptan-6-yl)-1-(piperazin-1-yl)ethan-1-one] was run?
The Ki was 10 to 100 nM.

For `C[C@H]1CCN1c1nc(N2CCN(CC(=O)N3CCOCC3)CC2)c2c(n1)C(F)(F)CC2` [Example 14, (S)-2-4-(7,7-difluoro-2-(2-methylazetidin-1-yl)-6,7-dihydro-5H-cyclopenta[d]pyrimidin-1-yl)-1-(piperazin-1-yl)morpholinoethan-1-one], which Ki is on record?
The Ki was 10 to 100 nM.

For `C[C@H]1CCN1c1nc(N2C[C@@H](OCC(=O)N3CCNCC3)[C@@H]2C)c2c(n1)C(F)(F)CC2` [Example 5, 2-(((2S,3R)-1-(7,7-difluoro-2-((S)-2-methylazetidin-1-yl)-6,7-dihydro-5H-cyclopenta[d]pyrimidin-4-yl)-2-methylazetidin-3-yl)oxy)-1-(piperazin-1-yl)ethan-1-one], which Ki is on record?
The Ki was 10 to 100 nM.

For `C[C@H]1CCN1c1nc(-c2ccc(OCC(=O)N3CCNCC3)c(F)c2)c2c(n1)C(F)(F)CC2` [Example 33], which Ki is on record?
The Ki was 10 to 100 nM.

`C[C@H]1CCN1c1nc(N2C[C@@H]3[C@@H](CC(=O)N4CCN(C)CC4)[C@@H]3C2)c2c(n1)C(F)(F)CC2` [Example 19, 2-((1R,5S,6R)-3-(7,7-difluoro-2-((S)-2-methylazetidin-1-yl)-6,7-dihydro-5H-cyclopenta[d]pyrimidin-4-yl)-3-azabicyclo[3.1.0]hexan-6-yl)-1-(4-methylpiperazin-1-yl)ethan-1-one] was tested. Which Ki did it give?
Its Ki is at most 10 nM.

Which Ki does the source give for `Cc1c(-c2ccc(OCC(=O)N3CCNCC3)nc2)nc(N2CC[C@@H]2C)nc1C(F)(F)F` [Example 40, (S)-2-((5-(5-methyl-2-(2-methylazetidin-1-yl)-6-(trifluoromethyl)pyrimidin-4-yl)pyridin-2-yl)oxy)-1-(piperazin-1-yl)ethan-1-one] here?
Its Ki is at most 10 nM.

`C[C@H]1CCN1c1nc(-c2ccc(CC(=O)N3CCNCC3)cc2)c2c(n1)C(F)(F)CC2` [Example 30, (S)-2-(4-(7,7-difluoro-2-(2-methylazetidin-1-yl)-6,7-dihydro-5H-cyclopenta[d]pyrimidin-4-yl)phenyl)-1-(piperazin-1-yl)ethan-1-one] was tested. Which Ki did it give?
Its Ki is at most 10 nM.

How did the Ki turn out when `C[C@H]1CCN1c1nc(N2CC[C@@H](OCC(=O)N3CCNCC3)C2)c2c(n1)C(F)(F)CC2` [Example 8, 2-(((R)-1-(7,7-difluoro-2-((S)-2-methylazetidin-1-yl)-6,7-dihydro-5H-cyclopenta[d]pyrimidin-4-yl)pyrrolidin-3-yl)oxy)-1-(piperazin-1-yl)ethan-1-one] was run?
The Ki was at most 10 nM.
